Reference: patent US10030006B2, “Coumarin based Hsp90 inhibitors with urea and ether substituents” (University of Kansas, priority 2013, dated 2018)
Like-named read-outs stand apart in the source and are kept apart here.

Experiments:
[1] = test system: MCF-7 (estrogen receptor positive breast cancer cells); assay: Anti-proliferation assay (MTS/PMS, 72 h), MCF-7; format: cell-based; details: Homo sapiens, MCF7
[2] = test system: A-549; assay: Anti-proliferation assay, A-549; format: cell-based; details: Homo sapiens, A549
In short: (§1)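 Cells seeded at 2000/well, attached overnight, then exposed to varying compound concentrations (1% DMSO final) for 72 h at 37 °C, 5% CO2. Viable cells read by MTS/PMS; 1% DMSO wells set as 100% proliferation. IC50 from separate triplicate experiments.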

[3] = test system: JMAR; assay: Anti-proliferation assay, JMAR; format: cell-based; details: JMAR, HSNCC
In short: as §1

[4] = test system: DRO81-1; assay: Anti-proliferation assay, DRO81-1; format: cell-based; details: Thyroid
In short: as §1

[5] = test system: BCPAP; assay: Anti-proliferation assay, BCPAP; format: cell-based; details: Homo sapiens, BCPAP, Thyroid
Method: (§2) Cells were maintained in a 1:1 mixture of Advanced DMEM/F12 (Gibco) supplemented with non-essential amino acids, L-glutamine (2 mM), streptomycin (500 μg/mL), penicillin (100 units/mL), and 10% FBS. Cells were grown to confluence in a humidified atmosphere (37° C., 5% CO2), seeded (2000/well, 100 μL) in 96-well plates, and allowed to attach overnight. Compound at varying concentrations in DMSO (1% DMSO final concentration) was added, and cells were returned to the incubator for 72 h. At 72 h, the number of viable cells was determined using an MTS/PMS cell proliferation kit (Promega) per the manufacturer's instructions. Cells incubated in 1% DMSO were used at 100% proliferation, and values were adjusted accordingly. IC50 values were calculated from separate experiments performed in triplicate using GraphPad Prism.

[6] = test system: SKBr3 and MCF-7 cell lines; assay: Anti-proliferative activity against both breast cancer cell lines (results in words); format: cell-based; details: text b189, two breast cancer cell lines
Method: as §2
The anti-proliferative activity of these compounds is evaluated against two breast cancer cell lines, SKBr3 (estrogen receptor negative, Her2 over-expressing breast cancer cells) and MCF-7 (estrogen receptor positive breast cancer cells).

[7] = test system: PC-3; assay: Anti-proliferation assay, PC-3; format: cell-based; details: Homo sapiens, PC-3, Prostate Cancer
In short: as §1

[8] = test system: HMLE; assay: Anti-proliferation assay, HMLE (normal); format: cell-based; details: HMLE
In short: as §1

[9] = test system: MRC5; assay: Anti-proliferation assay, MRC5 (normal); format: cell-based; details: Homo sapiens
In short: as §1

[10] = test system: SKBr3 (estrogen receptor negative, Her2 over-expressing breast cancer cells); assay: Anti-proliferation assay (MTS/PMS, 72 h), SKBr3; format: cell-based; details: Homo sapiens, SK-BR-3
[11] = test system: MDAMB231; assay: Anti-proliferation assay, MDAMB231; format: cell-based; details: Homo sapiens, MDA-MB-231, Tri-Neg
In short: as §1

[12] = test system: HCT-116; assay: Anti-proliferation assay, HCT-116; format: cell-based; details: Homo sapiens, HCT-116
In short: as §1

[13] = test system: MDA1986; assay: Anti-proliferation assay, MDA1986; format: cell-based; details: MDA1986, HSNCC
In short: as §1

[14] = test system: SKBr3 (estrogen receptor negative, Her2 over-expressing breast cancer cells); details: background, Marcu, et al., 2000; read-out: Hsp90 C-terminal inhibitor efficiency in SKBr3 cells; cited from earlier work
[15] = Table 7, prenylated phenyl ureas, Breast Cancer, read-out: IC50 MCF-3
[16] = Table 7, prenylated phenyl ureas
[17] = MRC5, Table 7, prenylated phenyl ureas
[18] = Table 7, prenylated phenyl ureas, Breast Cancer, read-out: IC50 SKBr3
[19] = Table 6, substituted phenyl ureas, Breast Cancer, read-out: IC50 MCF-3
[20] = Table 6, substituted phenyl ureas
[21] = MRC5, Table 6, substituted phenyl ureas
[22] = Table 6, substituted phenyl ureas, Breast Cancer, read-out: IC50 SKBr3

Row | IC50 [1, 19] | IC50 [2, 20] | IC50 [7, 20] | IC50 [10, 22] | IC50 [11, 20] | IC50 [12, 20] | Structure (SMILES) | IC50 [3, 20] | IC50 [4, 20] | IC50 [5, 20] | IC50 [8, 20] | IC50 [9, 21] | IC50 [13, 20] | other results
1 | – | – | – | – | – | – | CC(C)=CCc1cc(NC(=O)Nc2cc3ccc(OC4CCN(C)CC4)c(C)c3oc2=O)ccc1O [OH, 1-(4-hydroxy-3-(3-methylbut-2-en-1-yl)phenyl)-3-(8-methyl-7-((1-methylpiperidin-4-yl)oxy)-2-oxo-2H-chromen-3-yl)urea] | – | – | – | – | – | – | IC50 [1, 15]: 370 nM; IC50 ([1]; amide versus urea linkage, read-out: IC50 for MCF-3): 370 nM; IC50 [2, 16]: 250 nM; IC50 [3, 16]: 910 nM; IC50 [4, 16]: 1100 nM; IC50 [5, 16]: 990 nM; increase in inhibition, urea versus amide linkage [6]: 2-3 fold; IC50 [7, 16]: 290 nM; IC50 [8, 16]: 4800 nM; IC50 [9, 17]: 4020 nM; IC50 [10, 18]: 390 nM; IC50 ([10]; amide versus urea linkage, read-out: IC50 for SKBr3): 390 nM; IC50 [11, 16]: 660 nM; IC50 [12, 16]: 390 nM; IC50 [13, 16]: 1360 nM
2 | 550 nM | 1210 nM | 840 nM | 840 nM | 3500 nM | 1110 nM | Cc1cccc(NC(=O)Nc2cc3ccc(OC4CCN(C)CC4)c(C)c3oc2=O)c1 [m-CH3, 1-(8-methyl-7-((1-methylpiperidin-4-yl)oxy)-2-oxo-2H-chromen-3-yl)-3-(m-tolyl)urea] | 1800 nM | 540 nM | 3540 nM | 3100 nM | 4300 nM | 2020 nM | –
3 | 500 nM | 400 nM | 410 nM | 440 nM | 1900 nM | 340 nM | CCc1cccc(NC(=O)Nc2cc3ccc(OC4CCN(C)CC4)c(C)c3oc2=O)c1 [m-CH2CH3, 1-(3-ethylphenyl)-3-(8-methyl-7-((1-methylpiperidin-4-yl)oxy)-2-oxo-2H-chromen-3-yl)urea] | 630 nM | 670 nM | 5590 nM | > 25000 nM | 5300 nM | 1320 nM | –
4 | 2730 nM | 10900 nM | 10900 nM | 2370 nM | 1300 nM | > 100000 nM | Cc1c(OC2CCN(C)CC2)ccc2cc(NC(=O)Nc3cccc(O)c3)c(=O)oc12 [m-OH, 1-(3-hydroxyphenyl)-3-(8-methyl-7-((1-methylpiperidin-4-yl)oxy)-2-oxo-2H-chromen-3-yl)urea] | 6500 nM | > 25000 nM | 270 nM | 11900 nM | > 25000 nM | 21900 nM | –
5 | – | – | – | – | – | – | CO[C@@H]1[C@@H](OC(N)=O)[C@@H](O)[C@H](Oc2ccc3c(O)c(NC(=O)c4ccc(O)c(CC=C(C)C)c4)c(=O)oc3c2C)OC1(C)C [Novobiocin] | – | – | – | – | – | – | IC50 [14]: ~700000 nM
6 | – | – | – | – | – | – | COc1ccc(NC(=O)Nc2cc3ccc(OC4CCN(C)CC4)c(C)c3oc2=O)cc1CC=C(C)C [OMe, 1-(4-methoxy-3-(3-methylbut-2-en-1-yl)phenyl)-3-(8-methyl-7-((1-methylpiperidin-4-yl)oxy)-2-oxo-2H-chromen-3-yl)urea] | – | – | – | – | – | – | IC50 [1, 15]: 370 nM; IC50 [2, 16]: 230 nM; IC50 [3, 16]: 800 nM; IC50 [4, 16]: 210 nM; IC50 [5, 16]: 1340 nM; IC50 [7, 16]: 230 nM; IC50 [8, 16]: 6500 nM; IC50 [9, 17]: 2640 nM; IC50 [10, 18]: 510 nM; IC50 [11, 16]: 830 nM; IC50 [12, 16]: 300 nM; IC50 [13, 16]: 850 nM
7 | 1410 nM | 1910 nM | 1910 nM | 2370 nM | 4100 nM | 12100 nM | CC(=O)Oc1cccc(NC(=O)Nc2cc3ccc(OC4CCN(C)CC4)c(C)c3oc2=O)c1 [m-OAc, 3-(3-(8-methyl-7-((1-methylpiperidin-4-yl)oxy)-2-oxo-2H-chromen-3-yl)ureido)phenyl acetate] | 3850 nM | 2700 nM | 2820 nM | 13600 nM | > 25000 nM | 6820 nM | –
8 | 1720 nM | 1510 nM | 1150 nM | 1480 nM | 850 nM | 2610 nM | CC(=O)Oc1ccc(NC(=O)Nc2cc3ccc(OC4CCN(C)CC4)c(C)c3oc2=O)cc1 [p-OAc, 4-(3-(8-methyl-7-((1-methylpiperidin-4-yl)oxy)-2-oxo-2H-chromen-3-yl)ureido)phenyl acetate] | 3500 nM | 3700 nM | 5530 nM | 15900 nM | 15500 nM | 1980 nM | –
